{"source": "BindingDB's records for PubMed 39369480", "about": "(Xuzhou Medical University)"}
{"experiment": "Inhibition of P-gp in human K562/A02 cells over expressing P-gp assessed as reversal of multi-drug resistance by measuring ADR IC50 measured after 72 hrs by CCK-8 assay", "units": {"IC50": "nM"}}
{"compound": "COc1ccc(C(=O)Nc2ccccc2/N=N/c2ccc(CCN3CCc4cc(OC)c(OC)cc4C3)cc2)cc1OC", "IC50": 35}
{"compound": "COc1cc2c(cc1OC)CN(CCc1ccc(/N=N/c3ccccc3NC(=O)c3ccc(Cl)c(Cl)c3)cc1)CC2", "IC50": 1600}
{"compound": "COc1cc2c(cc1OC)CN(CCc1ccc(/N=N/c3ccccc3NC(=O)c3ccc(C)c(C)c3)cc1)CC2", "IC50": 168}
{"compound": "COc1cc2c(cc1OC)CN(CCc1ccc(/N=N/c3ccccc3NC(=O)c3ccc(F)c(F)c3)cc1)CC2", "IC50": 108}
{"compound": "COc1cc2c(cc1OC)CN(CCc1ccc(/N=N/c3ccccc3NC(=O)c3cc(OC)c(OC)c(OC)c3)cc1)CC2", "IC50": 1290}
{"compound": "COc1cc2c(cc1OC)CN(CCc1ccc(/N=N/c3ccccc3NC(=O)c3ccccc3)cc1)CC2", "IC50": 70}
{"compound": "COc1cccc(C(=O)Nc2ccccc2/N=N/c2ccc(CCN3CCc4cc(OC)c(OC)cc4C3)cc2)c1", "IC50": 68}
{"compound": "COc1ccc(C(=O)Nc2ccccc2/N=N/c2ccc(CCN3CCc4cc(OC)c(OC)cc4C3)cc2)cc1", "IC50": 88}
{"compound": "COc1cc2c(cc1OC)CN(CCc1ccc(/N=N/c3ccccc3NC(=O)c3ccccc3OC)cc1)CC2", "IC50": 15}
{"compound": "COc1cc2c(cc1OC)CN(CCc1ccc(/N=N/c3ccccc3NC(=O)c3ccc(C)cc3)cc1)CC2", "IC50": 44}
{"compound": "COc1cc2c(cc1OC)CN(CCc1ccc(/N=N/c3ccccc3NC(=O)c3ccccc3[N+](=O)[O-])cc1)CC2", "IC50": 20}
{"compound": "COc1cc2c(cc1OC)CN(CCc1ccc(/N=N/c3ccccc3NC(=O)c3ccc([N+](=O)[O-])cc3)cc1)CC2", "IC50": 120}
{"compound": "COc1cc2c(cc1OC)CN(CCc1ccc(/N=N/c3ccccc3NC(=O)c3cccc([N+](=O)[O-])c3)cc1)CC2", "IC50": 50}
{"compound": "COc1cc2c(cc1OC)CN(CCc1ccc(/N=N/c3ccccc3NC(=O)c3ccccc3Cl)cc1)CC2", "IC50": 32}
{"compound": "COc1cc2c(cc1OC)CN(CCc1ccc(/N=N/c3ccccc3NC(=O)c3ccc(Cl)cc3)cc1)CC2", "IC50": 83}
{"compound": "COc1cc2c(cc1OC)CN(CCc1ccc(/N=N/c3ccccc3NC(=O)c3cccc(Cl)c3)cc1)CC2", "IC50": 43}
{"compound": "COc1cc2c(cc1OC)CN(CCc1ccc(/N=N/c3ccccc3NC(=O)c3ccc(C(C)(C)C)cc3)cc1)CC2", "IC50": 105}
{"compound": "COc1cc2c(cc1OC)CN(CCc1ccc(NC(=O)c3ccccc3/N=N/c3ccccc3)cc1)CC2", "IC50": 92}
{"compound": "COc1ccccc1/N=N/c1ccccc1C(=O)Nc1ccc(CCN2CCc3cc(OC)c(OC)cc3C2)cc1", "IC50": 275}
{"compound": "COc1cc2c(cc1OC)CN(CCc1ccc(NC(=O)c3ccccc3/N=N/c3cccc(Cl)c3)cc1)CC2", "IC50": 84}
{"compound": "COc1cc2c(cc1OC)CN(CCc1ccc(NC(=O)c3ccccc3/N=N/c3ccc(Cl)cc3)cc1)CC2", "IC50": 82}
{"compound": "COc1cc2c(cc1OC)CN(CCc1ccc(NC(=O)c3ccccc3/N=N/c3ccc(C)cc3)cc1)CC2", "IC50": 68}
{"compound": "COc1ccc(C(=O)Nc2ccccc2C(=O)Nc2ccc(CCN3CCc4cc(OC)c(OC)cc4C3)cc2)cc1OC", "note": "[N-(2-(4-(2-(6,7-dimethoxy-3,4-dihydroisoquinolin-2(1H)-yl)ethyl)phenylcarbamoyl)phenyl)-3,4-dimethoxybenzamide]", "IC50": 34}
